Measured values from patent US20240270811A1, “Glycosylated Neuropeptide Derivative, Pharmaceutical Composition, Intranasal/Nasal Drop Formulation, and Use of Pharmaceutical Composition” (Tokyo University of Science Foundation, priority 2021, published 2024).
Where no end group is shown, it is not given here. The star is where a group is joined. X1 = CC(=O)N[C@@H]1[C@@H](O)[C@H](O[C@@H]2O[C@H](CO)[C@@H](O[C@@H]3O[C@H](CO[C@H]4O[C@H](CO)[C@@H](O)[C@H](O)[C@@H]4O[C@@H]4O[C@H](CO)[C@@H](O[C@@H]5O[C@H](CO[C@]6(C(=O)O)C[C@H](O)[C@@H](NC(C)=O)[C@H]([C@H](O)[C@H](O)CO)O6)[C@H](O)[C@H](O)[C@H]5O)[C@H](O)[C@H]4NC(C)=O)[C@@H](O)[C@H](O[C@H]4O[C@H](CO)[C@@H](O)[C@H](O)[C@@H]4O[C@@H]4O[C@H](CO)[C@@H](O[C@@H]5O[C@H](CO[C@]6(C(=O)O)C[C@H](O)[C@@H](NC(C)=O)[C@H]([C@H](O)[C@H](O)CO)O6)[C@H](O)[C@H](O)[C@H]5O)[C@H](O)[C@H]4NC(C)=O)[C@@H]3O)[C@H](O)[C@H]2NC(C)=O)[C@@H](CO)O[C@H]1NC(=O)C*

Legend:
Format in all cases: in vivo, mouse
[1] = Observation of section of trigeminal nerve after intranasal administration (FITC-labelled); conditions: 3.0 nmol/4 μL intranasal, 5 minutes
Method: After anesthetizing 7-week-old male ddY mice with isoflurane using an all-in-one small animal anesthetizer, a 16% DMSO solution of a PAS-CPP-GLP-2 derivative (11-sugar) labeled with FITC (3.0 nmol/4 μL) or 16% DMSO as a control was intranasally administered to the mice by the amount of 2 μL per nose cavity, 4 μL in total. The trigeminal nerve was isolated 5 minutes after the administration.
The trigeminal nerve was subjected to infiltration fixation with 4% PFA overnight. On the day following the isolation, the trigeminal nerve was substituted with 20% sucrose overnight (4° C.), and further with 30% sucrose overnight (4° C.). Thereafter, a frozen section with a thickness of 20 μm was prepared using a cryostat (CM3050S; Leica Microsystems).
The frozen section was mounted on a slide glass, and a circle was drawn around the section with a liquid blocker. To the inner side of the circle, 10 mM CuSO4/CH3COONH4 having an ability to suppress auto-fluorescence was added to immerse the section for 15 minutes. After washing three times with 1×PBS, a blocking buffer was added inside the circle and the section was subjected to blocking for 30 minutes at room temperature. […]

[2] = Migration to central nervous system, optical imaging of brain sagittal sections (ICG-labelled derivatives); conditions: for fluorescence in brain section: 3.0 nmol/4 μL intranasal
Method: Administration solutions were prepared by completely dissolving a PAS-CPP-GLP-2 derivative (no sugar) labelled with ICG or a PAS-CPP-GLP-2 derivative (11-sugar) labelled with ICG in DMSO, and adjusting the final concentration of DMSO to 16% by adding PBS.
The concentration of a PAS-CPP-GLP-2 derivative (no sugar) or a PAS-CPP-GLP-2 derivative (11-sugar) was adjusted to 3.0 nmol/4 μL.
After anesthetizing mice with isoflurane using an all-in-one small animal anesthetizer, the administration solutions or 16% DMSO as a control was intranasally administered to the mice by the amount of 2 μL per nose cavity, 4 μL in total.
In order to observe the migration to the brain over time, the brain was isolated 5 minutes, 10 minutes, 20 minutes, 60 minutes and 90 minutes after the intranasal administration, respectively, and subjected to infiltration fixation with 4% paraformaldehyde (4% PFA) solution overnight. Subsequently, a sagittal section with a thickness of 2 mm at the left and the right from the center of the brain was prepared using a brain matrix (RBM-2000S, ASI). The section was placed in a dish and analyzed with an optical imaging apparatus (Clairvivo OPT plus, Shimadzu Corporation) at an excitation wavelength of 785 nm, fluorescence wavelength of 849 nm, and an exposure time: 6 seconds.

[3] = Distribution in brain by immunostaining of frozen brain sections (Example 6); conditions: 3.0 nmol/4 μL intranasal
Method: The distribution in the brain of a glycosylated GLP-2 derivative (11-sugar) after intranasally administered was evaluated by preparing frozen brain sections and subjecting the same to immunostaining. The brain sections were prepared from tissues around the hippocampus (HIP), dorsomedial nucleus of the hypothalamus (DMH), olfactory bulb (OB), and pons/principal sensory nucleus of trigeminal nerve (Pr5). The olfactory bulb includes olfactory nerves, which are assumed to be a pathway for the migration of GLP-2.
After anesthetizing 7-week-old male ddY mice with isoflurane using an all-in-one small animal anesthetizer, a 16% DMSO solution of a PAS-CPP-GLP-2 derivative (11-sugar) (3.0 nmol/4 μL) or 16% DMSO as a control was intranasally administered to the mice by the amount of 2 μL per nose cavity, 4 μL in total. The brain was isolated 5 minutes after the administration and 20 minutes after administration.
The brain isolated 5 minutes after the intranasal administration was subjected to infiltration fixation with 4% PFA at 4° C. overnight without performing perfusion fixation. The isolation of the brain 20 minutes after the intranasal administration was performed by the following process.
The mouse is fixed in a supine position under anesthesia with isoflurane, and the chest was incised. PBS and 4% PFA were perfused, in this order, from the left chamber of the heart throughout the whole body for fixing the tissue. The isolated brain was preserved in a 4% PFA solution. On the day following the isolation, the brain samples were substituted with 20% sucrose overnight (4° C.), and further with 30% sucrose overnight (4° C.). Thereafter, a frozen section with a thickness of 30 μm was prepared using a cryostat (CM3050S; Leica Microsystems).
The frozen brain section was mounted on a slide glass, and a circle was drawn around the section with a liquid blocker. A blocking buffer was added inside the circle and the section was subjected to blocking for 30 minutes at room temperature. Thereafter, the section was added with a first antibody solution including a GLP-2 polyclonal antibody, diluted 200 times with a blocking solution, and subjected to incubation for 1 hour at room temperature. After washing three times with 1×PBS, the section was added with a second antibody solution including Alexa Fluor (trademark) 568 Goat Anti-Mouse IgG H&L, diluted 500 times with a BSA/PBS solution, and subjected to incubation for 1 hour at room temperature. After washing three times with 1×PBS, the section was mounted with ProLong (trademark) Diamond Antifade Mountant. After confirming the solidification of the mountant, the section was subjected to fluorescent observation and imaging with a confocal laser microscope (TCS SP8; Leica) and a software (Leica Application Suite X Software; Leica).

FFLIPKGRRRRRRRRGGHADGSFSDEMNTILDNLAARDFINWLIQTKITDC(X1)-OH [PAS-CPP-GLP-2 (11-sugar)]
fluorescence in section of trigeminal nerve (overlap of derivative and neural fibers) [1]: expresses yellow fluorescence | fluorescence in brain section ([2]; 5 minutes after administration): fluorescence was observed | fluorescence in brain section ([2]; 10 minutes after administration): fluorescence was observed intensively | fluorescence in brain section ([2]; 20 minutes after administration): fluorescence was observed | fluorescence in brain section ([2]; 60 minutes after administration): a relatively strong degree of fluorescence was observed | fluorescence in brain section ([2]; 90 minutes after administration): fluorescence was not observed | retention in brain compared with PAS-CPP-GLP-2 derivative (no sugar) ([2]; intranasal, 5-90 minutes): remains in the brain for a longer time period | fluorescence at region around Pr5 ([3]; 5 minutes): fluorescence was observed intensely | fluorescence at the other regions (HIP, DMH, OB) ([3]; 5 minutes): very little fluorescence was observed | fluorescence at DMH ([3]; 20 minutes): observed clearly | fluorescence at HIP ([3]; 20 minutes): fluorescence was observed | fluorescence at Pr5 ([3]; 20 minutes): florescence was observed | fluorescence intensity at OB ([3]; 20 minutes): weak
